From US20030171371A1, “Immunosuppressant n-acyles homoserine lactones” (priority 2000, published 2003)

How the values were obtained:
[1] = system: TNF-alpha production from LPS-stimulated human PBMC; experiment: TNF-alpha production from LPS-stimulated human PBMC (sandwich ELISA); format: cell-based; conditions: FIG. 3, FIG. 5
Experimental: Bacterial lipopolysaccharide (LPS) stimulates the production of a variety of cytokines, including TNF-alpha, from human PBMC; these cytokines in turn influence the development of T cells, supporting a T helper 1 conducive milieu. Human PBMC prepared from whole blood by buoyant density centrifugation were resuspended in CTCM. […] Following incubation for 24 h at 37° C. in 5% CO2-air, the cell culture supernatants were collected and tested for TNF-alpha levels by ‘sandwich’ ELISA. Briefly, 96-well Nunc MaxiSorp (Life Technologies, Paisley, UK) plates were coated with 50 μl of a 2 μg/ml solution of mouse anti-human TNF-alpha monoclonal antibody (Pharmingen, UK) in 0.05 M carbonate/bicarbonate buffer, pH 9.6 overnight at 4° C. […] Following three washes with PBS-Tween, 50 μl of cell culture supernatants were added and incubated overnight at 4° C.; standard human TNF-alpha (Pharmingen, UK) ranging from 2000 to 31.25 pg/ml were included for each plate. […] Following four washes, the bound biotinylated antibody was detected with 50 μl of a 1:1,000 dilution of Streptavidin-peroxidase (Pharmingen, UK). At the end of an hour incubation at room temperature, the plates were thoroughly washed six times with PBS-Tween and the assay was developed by the addition of 100 μl of 0.1 mg/ml of tetramethyl benzidine subtrate (Sigma, Poole, UK) in 0.1 M sodium acetate buffer, pH 6 containing 0.03% H2O2. The enzyme reaction was stopped with 50 μl of 2.5 M H2SO4 after an incubation of 10 minutes at room temperature and the development was read at 450 nm with a spectrophotometric 96-well plate reader (Dynex).

human PBMC = experiment: ConA mitogen-stimulated proliferation of human PBMC ([3H]-thymidine incorporation); format: cell-based; conditions: FIG. 2
Experimental: II. ConA Mitogen-Stimulated Proliferation of Human PBMC
Blood specimens were obtained with consent from healthy human volunteers. Human peripheral blood mononuclear cells (PBMC) were isolated from heparinised whole blood by buoyant density centrifugation over Histopaque 1077 (Sigma, Poole, UK) at 600 g for 20 minutes. PBMC harvested from the ‘buffy’ layers were washed twice with RPMI 1640 medium and resuspended in CTCM. HSL compounds were tested at similar dilutions as for murine splenocytes in 200 μl of CTCM, containing 1 μg/ml of ConA and 100,000 PBMC. Human PBMC were incubated for 48 h at 37° C. in 5% CO2-air, followed by pulsing with 0.25 μCi [^3H]-thymidine (see above). After a further incubation of 24 h cells were harvested onto fibreglass filters and then counted in the presence of MicroScint-O with the Packard TopCount.
Concanavalin induced cell proliferation of human peripheral blood mononuclear cells (PBMC) was tracked, as described in I above, by a measurement of counts per minute using the scintillation counter. The inhibitory effect of an HSL compound being tested on cell proliferation was indicated by a reduction in counts per minute.
Columns B, C and D represent different sources of human PBMC samples used.

murine splenocytes = experiment: ConA mitogen-stimulated proliferation of murine splenocytes ([3H]-thymidine incorporation); format: cell-based, mouse (BALB/c); conditions: for effect on ConA induced splenocyte proliferation (cpm vs concentration): FIG. 1
Experimental: Proliferation was assessed by the incorporation of [^3H]-thymidine into DNA. Eight-week-old female BALB/c mice were obtained from Harlan (Bicester, Oxon, UK) and given food and water ad libitum. Splenocyte suspensions were prepared by removing the spleens and placing them into RPMI 1640 medium. The spleens were forced through 70-μm-pore-size wire gauzes using the plunger from a 5-ml syringe to produce a single cell suspension. […] Leucocytes were washed twice with RPMI 1640 medium with 2% (vol/vol) foetal calf serum (FCS) and resuspended in complete cell culture medium (CTCM) consisting of RPMI 1640 medium with 5% FCS, 2 mM L-glutamine, and 5×10^−5 M 2-mercaptoethanol. HSL compounds were tested at doubling down dilutions ranging from 1 mM to 0.1 μM in a final volume of 200 μl of CTCM, containing ConA (Sigma, Poole, UK) at 1 μg/ml and 100,000 spleen cells. Following incubation for 48 h at 37° C. in 5% CO2-air, 0.25 μCi [^3H]-thymidine (Amersham) in 10 μl volume made up in RPMI 1640 medium was added and the cells were incubated for a further 24 h. Cells were harvested onto fibreglass filters with a Packard filtermate harvester. After the addition of 25 μl of MicroScint-O (Packard) to each well the filters were counted with the Packard TopCount scintillation counter.
Mitogen (Concanavalin A) induced murine splenocyte proliferation was indicated by the incorporation of tritated thymidine into the DNA in the mouse spleen cells as shown by counts per minute using the scintillation counter. The inhibitory effect of an HSL compound being tested on cell proliferation was indicated by a reduction in counts per minute.

murine spleen cells = conditions: literature report; cited from earlier work
[2] = system: TNF-a production by LPS-stimulated adherent murine peritoneal macrophages; conditions: literature report; cited from earlier work

| Molecule | effect on LPS induced TNF-α secretion by human PBMC [1] | effect on proliferation of human PBMC stimulated with Concanavalin A (cpm vs concentration) (human PBMC) | effect on ConA induced splenocyte proliferation (cpm vs concentration) (murine splenocytes) | further results |
| --- | --- | --- | --- | --- |
| CCCCCCCCCCCC(=O)CC(=O)N[C@H]1CCOC1=O [Example 11, N-(3-Oxotetradecanoyl)-L-homoserine lactone] | inhibited the secretion of the T helper 1-supporting cytokine TNF-α | inhibited proliferation of human PBMC | – | – |
| CCCC(=O)CC(=O)N[C@H]1CCOC1=O [OHHL, N-(3-oxohexanoyl)-L-homoserine lactone] | difference in activity between OHHL and OdDHL is marked | – | – | – |
| N-(3-Hydroxy-9-tetradecenoyl)-L-homoserine lactone [Example 24] | – | – | – | IC50 (murine splenocytes; Experiment I, ConA 1 μg/ml, 100,000 spleen cells, read-out: IC50, inhibition of ConA induced murine splenocyte proliferation (column A)): 15 µM |
| CCCCCC(=O)CC(=O)N[C@H]1CCOC1=O [OOHL, N-(3-oxooctanoyl)-L-homoserine lactone] | – | – | failed to inhibit proliferation | – |
| CCCCCCCCCC(=O)CC(=O)N[C@H]1CCOC1=O [Example 6, N-(3-Oxododecanoyl)-L-homoserine lactone] | inhibited the secretion of the T helper 1-supporting cytokine TNF-α | inhibited proliferation of human PBMC | inhibits splenocyte proliferation | effect on concavalin A mitogen stimulated proliferation of murine spleen cells (murine spleen cells): inhibiting; effect on TNF-a production by LPS-stimulated adherent murine peritoneal macrophages [2]: inhibiting |
